Source: patent publication US12258360B2, “Compositions and methods for treatment of anticancer-drug resistant cancers” (THE GEORGE WASHINGTON UNIVERSITY, priority 2020, dated 2025)

Experiments:
[1] = target: T1, And-1 (Homo sapiens, UniProt O75717); assay: immunoblot analysis of And-1 expression in IGROV1 cells; assay type: cell-based; parameters: endogenous in cells; host or cells: IGROV1 CR
T1 sequence (O75717 1-1129): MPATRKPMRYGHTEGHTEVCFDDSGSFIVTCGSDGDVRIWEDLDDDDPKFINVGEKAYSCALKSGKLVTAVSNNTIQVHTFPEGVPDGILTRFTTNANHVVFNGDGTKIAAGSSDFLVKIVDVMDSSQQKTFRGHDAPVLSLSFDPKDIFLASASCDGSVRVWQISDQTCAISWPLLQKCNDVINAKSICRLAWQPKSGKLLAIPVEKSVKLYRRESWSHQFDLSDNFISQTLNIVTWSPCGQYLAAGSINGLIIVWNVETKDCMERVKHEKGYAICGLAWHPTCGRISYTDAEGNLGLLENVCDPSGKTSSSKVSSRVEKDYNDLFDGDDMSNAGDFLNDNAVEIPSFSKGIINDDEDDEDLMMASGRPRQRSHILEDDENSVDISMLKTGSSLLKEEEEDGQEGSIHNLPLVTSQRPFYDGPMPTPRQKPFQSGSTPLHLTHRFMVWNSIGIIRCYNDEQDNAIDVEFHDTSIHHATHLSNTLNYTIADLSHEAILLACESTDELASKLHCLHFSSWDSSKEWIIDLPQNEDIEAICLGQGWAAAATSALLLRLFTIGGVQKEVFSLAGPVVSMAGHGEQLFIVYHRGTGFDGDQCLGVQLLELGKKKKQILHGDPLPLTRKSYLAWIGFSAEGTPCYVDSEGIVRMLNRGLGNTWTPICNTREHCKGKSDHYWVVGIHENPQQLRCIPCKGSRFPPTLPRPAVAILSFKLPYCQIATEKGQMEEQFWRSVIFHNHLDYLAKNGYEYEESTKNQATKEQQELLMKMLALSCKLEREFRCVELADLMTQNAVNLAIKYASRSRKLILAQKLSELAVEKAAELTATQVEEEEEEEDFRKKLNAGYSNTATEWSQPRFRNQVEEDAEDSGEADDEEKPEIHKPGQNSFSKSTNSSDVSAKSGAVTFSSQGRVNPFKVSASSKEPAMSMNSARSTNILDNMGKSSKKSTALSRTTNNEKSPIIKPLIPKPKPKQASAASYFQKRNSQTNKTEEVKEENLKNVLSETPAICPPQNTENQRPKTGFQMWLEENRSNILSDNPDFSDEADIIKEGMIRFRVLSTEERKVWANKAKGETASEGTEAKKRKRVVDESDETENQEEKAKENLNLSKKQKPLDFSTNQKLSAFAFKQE
Experimental: The high IC50 of resveratrol compromises its potential clinical application; therefore, resveratrol was used as a lead compound to screen 12 analogs of resveratrol for potent compounds that can inhibit And-1 (FIG. 14). […] To perform immunoblot analyses, cells were first treated with increasing concentrations of the 12 analogs. After treatment, the cells were harvested and then lysed with RIPA buffer protease inhibitor and phosphatase inhibitor cocktail. Protein concentration was determined by the BCA protein assay. Equal amounts of whole cell lysates were separated on sodium dodecyl sulfate polyacrylamide gel electrophoresis (SDS-PAGE) and transferred onto nitrocellulose membranes. Membranes were then incubated in blocking solution (5% non-fat milk in 20 mM TRIS-HCl, 150 mM NaCl, 0.1% Tween-20) (TBST), followed by incubation with the indicated antibodies at 4° C. overnight. The membranes were then washed in TBST and incubated with HRP-conjugated secondary antibodies for 1 hour at room temperature (21° C.±2° C.). Antibody detection was performed with an enhanced chemiluminescence reaction.

[2] = system: IGROV1 xenograft; assay type: in vivo, mice
Experimental: (§1) To evaluate the potency of And-1 inhibitors in vivo, IGROV1 or MCF7 cells were subcutaneously implanted into nude mice to form ovarian or breast tumors, respectively. In brief, 5-6 week-old female BALB/c athymic nude mice (CByJ.Cg-Foxn1nu/J, weighting 20-25 grams) were inoculated subcutaneously by injecting the OC cells, cisplatin resistant OC cells or breast cancer cells suspended in 100 μl ice-cold Matrigel/PBS (1:1, V:V; 5×10^6/mouse) into the dorsal flank of each mouse. When the average tumor volume reached 100-150 mm^3, the mice were randomized into subsequent experiment groups. For tumors treated with CH3 only, CH3 was given at 0 mg/kg, 20 mg/kg and 40 mg/kg via intraperitoneal injection twice a week for three weeks. […] The relative tumor volumes were calculated using the formula: a×(b^2)/2, for which a and b represented the longest and shortest diameters, respectively. During the drug treatment, the tumor volume and body weight were measured. Tumor samples were collected 4 days after final administration of the drug.

[3] = system: MCF7 xenograft; assay type: in vivo, mice
Experimental: as §1

[4] = system: IGROV1 CR xenograft; assay type: in vivo, mice
Experimental: as §1
To assess the efficacy of combination therapy with And-1 inhibitor and cisplatin in vivo, an IGROV1 CR xenograft was treated with vehicle, And-1 inhibitors, cisplatin or combination of cisplatin and And-1 inhibitor via intraperitoneal injection.

[5] = target: T1, And-1; assay: fluorescent boron sensor DAHMI staining of live IGROV1 cells; assay type: cell-based; parameters: endogenous in cells; host or cells: IGROV1 CR
Description: Boron-containing compounds can be visualized using a fluorescent boron sensor DAHMI. To determine the binding specificity of CH3 to And-1, the distribution of CH3 in live cells was examined using DAHMI.

[6] = target: T1, And-1; assay: cellular thermal shift assay; assay type: binding; parameters: endogenous in cells; host or cells: IGROV1 CR; details: cells incubated 8 hours, compared to DMSO
Experimental: To explore whether And-1 inhibitors directly bind to And-1, cellular thermal shift assays were performed in which a small molecule binds to a protein resulting in thermal stabilization of the protein. Briefly, cells were incubated with MG132 (10 μM), DHS, CH3, CH10 or DMSO for 8 hours. After washing with ice-cold PBS (suppled with Protease Inhibitor Cocktail), cells were aliquoted into PCR tubes (100 μL each) and then incubated at different temperatures (from 25° C. to 71° C.) for 4 minutes. After the cells were frozen and thawed twice using liquid nitrogen, proteins were isolated from the cells after centrifugation and incubated at 70° C. for 10 minutes for analysis by western blotting.

[7] = system: IGROV1 cells; assay: flow cytometry (FACS) of propidium-iodide stained IGROV1 cells; assay type: cell-based, human; details: 1 μM

**Q.** What does the source list for `OB1OCc2cc(/C=C/c3ccc(Cl)c(Cl)c3)ccc21` [CH3]?
**A.** And-1 protein levels ([1]; 5 μM for 48 hours, without MG132): reduced And-1 protein levels; IC50 ([1]; immunoblot, read-out: IC50 for inhibition of And-1 expression): 2.08 µM; And-1 expression in tumor (IHC) ([2]; IGROV1 xenograft): inhibited And-1 expression; apoptosis in tumor (cleaved caspase-3 IHC) ([2]; IGROV1 xenograft): induced apoptosis in tumor; tumor growth ([2]; IGROV1 xenograft, 20 or 40 mg/kg intraperitoneally, three weeks): significantly reduced tumor growth; systemic toxicity (body weight, H&E staining of heart, liver, kidney and lung) ([2]; mouse, in vivo): systemic toxicity or obvious side effects were not observed; And-1 expression in tumor (IHC) ([3]; MCF7 xenograft): inhibited And-1 expression; apoptosis in tumor (cleaved caspase-3 IHC) ([3]; MCF7 xenograft): induced apoptosis in tumor; tumor growth ([3]; MCF7 xenograft, 20 or 40 mg/kg intraperitoneally, three weeks): significantly reduced tumor growth; systemic toxicity (body weight, H&E staining of heart, liver, kidney and lung) ([3]; mouse, in vivo): systemic toxicity or obvious side effects were not observed; And-1 expression in tumor samples (IHC) ([4]; IGROV1 CR xenograft): suppressed expression of And-1; tumor growth, combination with cisplatin vs cisplatin alone ([4]; IGROV1 CR xenograft, cisplatin 8 mg/kg, CH3 20 mg/kg, BZA 2 mg/kg intraperitoneally, three weeks): excellent synergy in reducing tumor growth; systemic toxicity of combination with cisplatin (body weight, H&E staining) ([4]; mouse, in vivo): no obvious systemic toxicity or side effect; distribution of compound in live cells (DAHMI) [5]: detected in nuclei; thermal stabilization of And-1 protein at higher temperatures [6]: stabilized; percentage of cells in the S-phase [7]: reduced the percentage of cells in the S-phase
